Results published in patent US20050058665A1, “Identification of virulence determinants activators in prokaryotic pathogens” (Boston Medical Center Corporation, priority 1998, published 2005).

How the values were obtained:
DtxR = target: T1, DtxR (Corynebacterium diphtheriae, UniProt P0DJL7); assay: PSDT system, chloramphenicol resistance phenotype of the indicator strain; assay type: cell-based; conditions: E. coli TOP10/λRS65T/pSC6/pRDA; DP added to growth medium
T1 construct: expressed in transfected cells; host or cells: E. coli TOP10/λRS65T/pSC6/pRDA
T1 sequence (P0DJL7 1-226): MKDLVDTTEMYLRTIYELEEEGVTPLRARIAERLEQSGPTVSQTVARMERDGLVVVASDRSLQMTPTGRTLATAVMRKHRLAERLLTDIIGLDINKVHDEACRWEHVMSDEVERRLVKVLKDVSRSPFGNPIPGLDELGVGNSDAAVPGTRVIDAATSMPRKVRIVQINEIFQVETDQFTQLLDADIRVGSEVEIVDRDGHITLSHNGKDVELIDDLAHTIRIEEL
Source text: Development of the PSDT System. The PSDT system, which consists of a lysogenic E. coli TOP1O host strain carrying the reporter gene cat on an integrated λ phage, λRS65T, and a set of detector plasmids, is illustrated in FIG. 1. Expression of cat on λRS65T is controlled by the tetA promoter/operator (tetAPO), and, in the absence of the tetracycline repressor (TetR), E. coli TOP10/λRS65T is resistant to chloramphenicol (Cm^R).
We next constructed the detector plasmid pSC6, which carries the tetR gene under the control of the diphtheria toxPO. When pSC6 is transformed into E. coli TOP10/λRS65T, the bacterial host strain becomes Cm-sensitive (Cm^S) by virtue of the constitutive expression of tetR, which recognizes and binds to the tetAO and represses cat gene expression. However, if a functional dtxR allele is introduced into the bacterial host on a second compatible plasmid, PRDA, the interaction between DtxR and the toxO will repress the expression of tetR, and the bacterial host, E. coli TOP10/λRS65T/pSC6/pRDA, then will regain its CM^rphenotype.

toxPO-lacZ = assay: β-galactosidase assay in toxPO-lacZ reporter strain; assay type: cell-based; conditions: E. coli DH5α/λRS45 toxPO; LB broth, absence or presence of increasing concentrations of DP (up to 250 μM)
Procedure: β-Galactosidase Assay. β-galactosidase activity was measured essentially as described by Miller (Miller, J. H. (1972) Experiments in Molecular Genetics (Cold Spring Harbor Lab. Press, Plainview, N.Y.)). In brief, 0.5 ml of an overnight culture at ^A600 of =1.0 were lysed by the addition of lysis mix (chloroform:10% SDS, 2:1), vortexing the mixture for 10 sec and transferring 200 μl to 800 ul lacZ buffer (60 mM Na2HPO4/40 mM NaH2PO4/10 mM KCl/1 mM MgSO4/50 mM β-mercaptoethanol). The reaction was initiated by adding 200 μl of o-nitrophenyl β-D-galactopyranoside (Sigma) (4 mg/ml). After incubation at room temperature (5 min-1 hr), the reaction was stopped by the addition of 0.5 ml of 1M sodium carbonate. Absorbance was measured at 420 and 550 nm, and β-galactosidase units were calculated according to Miller, supra.
The resulting plasmids were designated pDM2, pDM3, pDM11, and pDM5, respectively. The pDM series of plasmids then were transformed individually into E. coli DH5α/λRS45 toxPO. This reporter strain carries a transcriptional fusion in which the lacZ gene is under the control of the diphtheria toxPO, toxPO-lacZ, and, as a result, the synthesis of β-galactosidase is regulated by their respective dtxR gene products. Individual strains were grown in LB broth supplemented with appropriate antibiotics in either the absence or presence of increasing concentrations of DP. […]

Row | Molecule | chloramphenicol resistance phenotype (DtxR) | β-galactosidase activity (toxPO-lacZ)
1 | c1ccc(-c2ccccn2)nc1 [DP, 2,2′-dipyridyl] | phenotypic conversion from Cm^R to Cm^S | 
2 | wild-type DtxR (protein, UniProt P0DJL7 1-226, looked up) Diphtheria toxin repressor: MKDLVDTTEMYLRTIYELEEEGVTPLRARIAERLEQSGPTVSQTVARMERDGLVVVASDRSLQMTPTGRTLATAVMRKHRLAERLLTDIIGLDINKVHDEACRWEHVMSDEVERRLVKVLKDVSRSPFGNPIPGLDELGVGNSDAAVPGTRVIDAATSMPRKVRIVQINEIFQVETDQFTQLLDADIRVGSEVEIVDRDGHITLSHNGKDVELIDDLAHTIRIEEL |  | β-galactosidase activity increases
